The assay relates to HSV-1 (strain SC16). Briefly: Virus yield reduction assay (plaque assay, Vero cell monolayers). The assay is classed as cell-based. Here is the method: African green monkey kidney cells (Vero) (ATCC CCL-81) were grown in Dulbecco's modified Eagle's medium (DMEM) supplemented with 10% fetal calf serum. HSV-1 (strain SC16), carrying a lacZ gene driven by the CMV IE-1 promoter to express β-galactosidase, was propagated on Vero cells monolayers.
For all experiments, peptides, dendrimers, and peptidodendrimers were dissolved in DMEM without serum and used at concentrations of 0, 5.5, 55, 280, and 550 nM. All experiments were conducted in triplicate. The percentage of infectivity inhibition was calculated by setting the number of plaques obtained in positive controls where no antiviral compounds were added to the cell monolayers to 0% inhibition.
Confluent Vero cell monolayers (12-well plates) were washed with phosphate-buffered saline (PBS) and infected with HSV-1 at multiplicity of infection (MOI) of 1 plaque-forming unit (pfu)/cell for 1 hour at 37° C. The virus inocula were mixed with the peptide/dendrimer/conjugate(s) to be tested, as described in Example 3 above. […] Plaques were stained with X-gal (5-bromo-4-chloro-3-indolyl-([…]-galactopyranoside) and microscopically counted. The mean plaque counts for each drug concentration were expressed as a percentage of the mean plaque count for the control virus. The number of plaques was plotted as a function of drug concentration. See FIG. 6. […]

As to “AAHLIDALYAEFLGGRVLTT (SEQ ID NO: 53) (HSV-1 envelope glycoprotein-derived peptide) [PgH, Residues 493-512 of envelope glycoprotein H]”, the “antiviral activity relative to comparators (in words)” value (HSV-1 on Vero cells, FIGS. 6 and 18) is “less active than gB8”.

With “FARLQFTYNHIQRHVRDMEGR (SEQ ID NO: 23) (HSV-1 envelope glycoprotein-derived peptide) [gB8, Residues 503-523 of envelope glycoprotein B]”, the “inhibitory concentration (range in words)” value (peptide alone vs peptide conjugated to dendrimer) is given as “micromolar”.

Source of the values: US20160228565A1, “POLYAMIDE BASED PEPTID[…]” (New York University, priority 2014, published 2016).
